# Source: patent publication US20250313575A1, “MACROCYCLES AS LRRK2 INHIBITORS, PHARMACEUTICAL COMPOSITIONS, AND USES THEREOF” (Merck Sharp & Dohme LLC, priority 2022, published 2025)
# Target: GST-tagged truncated human mutant G2019S LRRK2 (Homo sapiens (Human), UniProt Q5S007, G2019S)
# Assay: LRRK2 G2019S Km ATP LanthaScreen assay
# Format: biochemical
# Conditions: G2019S LRRK2, 134 μM ATP (Km ATP), LRRKtide substrate
# Outline: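 TR-FRET assay with GST-tagged truncated human G2019S LRRK2 (1.25 nM), preincubated with compound 15 min, then reacted with fluorescein-LRRKtide and 134 μM ATP (Km) in Tris pH 8.5 buffer, 90 min, ambient temperature. Tb-anti-phospho-LRRKtide detection, 520/495 nm ratio; IC50 by 4-parameter logistic fit, top concentration 9.99 μM in DMSO, 10 points.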
# GST-tagged truncated human mutant G2019S LRRK2, sequence (Q5S007 970-2527 G2019S): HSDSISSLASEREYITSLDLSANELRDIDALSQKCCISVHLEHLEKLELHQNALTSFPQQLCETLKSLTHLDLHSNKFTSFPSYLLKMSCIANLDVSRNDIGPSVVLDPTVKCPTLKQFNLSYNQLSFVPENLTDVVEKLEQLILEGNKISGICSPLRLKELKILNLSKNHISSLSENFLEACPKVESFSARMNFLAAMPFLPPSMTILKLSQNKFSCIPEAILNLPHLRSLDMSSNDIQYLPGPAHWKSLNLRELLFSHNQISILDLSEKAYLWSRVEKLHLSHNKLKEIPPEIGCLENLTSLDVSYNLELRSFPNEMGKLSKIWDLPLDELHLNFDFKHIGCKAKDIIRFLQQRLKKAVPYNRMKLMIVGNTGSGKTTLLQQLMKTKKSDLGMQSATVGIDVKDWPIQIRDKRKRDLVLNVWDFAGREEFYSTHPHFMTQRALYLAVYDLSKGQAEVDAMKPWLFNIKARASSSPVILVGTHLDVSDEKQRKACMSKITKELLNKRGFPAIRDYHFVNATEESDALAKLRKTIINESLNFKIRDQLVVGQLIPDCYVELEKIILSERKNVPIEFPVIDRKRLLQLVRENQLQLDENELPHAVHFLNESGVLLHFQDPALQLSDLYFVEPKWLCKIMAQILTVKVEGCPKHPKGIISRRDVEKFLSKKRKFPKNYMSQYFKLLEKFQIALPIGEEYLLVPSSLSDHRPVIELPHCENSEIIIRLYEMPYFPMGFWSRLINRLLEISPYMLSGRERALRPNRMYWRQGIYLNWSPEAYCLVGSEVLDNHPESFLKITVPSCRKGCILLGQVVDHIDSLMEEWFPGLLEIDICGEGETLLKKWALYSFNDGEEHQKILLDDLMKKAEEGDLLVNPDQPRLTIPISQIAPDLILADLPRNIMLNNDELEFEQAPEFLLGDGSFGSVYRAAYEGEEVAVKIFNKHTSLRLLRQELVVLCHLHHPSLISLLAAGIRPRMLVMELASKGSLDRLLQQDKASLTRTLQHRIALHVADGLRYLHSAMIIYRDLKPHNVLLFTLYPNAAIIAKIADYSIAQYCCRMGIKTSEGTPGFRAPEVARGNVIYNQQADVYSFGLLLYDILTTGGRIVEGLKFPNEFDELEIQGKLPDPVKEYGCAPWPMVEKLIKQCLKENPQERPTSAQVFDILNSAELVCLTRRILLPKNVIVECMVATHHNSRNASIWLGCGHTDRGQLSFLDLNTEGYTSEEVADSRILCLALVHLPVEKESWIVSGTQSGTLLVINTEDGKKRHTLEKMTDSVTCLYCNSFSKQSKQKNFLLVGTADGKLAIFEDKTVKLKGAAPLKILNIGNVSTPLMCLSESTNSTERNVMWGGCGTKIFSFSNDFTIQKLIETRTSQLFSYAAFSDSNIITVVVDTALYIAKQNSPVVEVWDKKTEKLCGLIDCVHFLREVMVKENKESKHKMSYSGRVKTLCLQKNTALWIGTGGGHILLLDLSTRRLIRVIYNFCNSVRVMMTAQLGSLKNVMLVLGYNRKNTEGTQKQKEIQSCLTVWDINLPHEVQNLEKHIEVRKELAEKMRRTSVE
row,Compound,LRRK2 pIC50
1,"Cc1nn(C2CCC2)c2c1OC[C@@H]1CN(CCO1)c1nc(ncc1C(F)(F)F)N2 (single isomer, unassigned) [Ex-21.2, (6R)- or (6S)-1-cyclobutyl-3-methyl-12-(trifluoromethyl)-1,5,6,8,9,16-hexahydro-11,15-(azeno)-6,10-methanopyrazolo[4,3-e][1,4]dioxa[7,9,13]triazacyclopentadecine]",8.07
2,"FC(F)(F)c1cnc2nc1NC1CCC1COc1c(C3COC3)nn(C3CCC3)c1N2 [Ex-2.72, (10aR,12aR)- or (10aS,12aS)-3-cyclobutyl-1-(oxetan-3-yl)-8-(trifluoromethyl)-3,4,10,10a,11,12,12a,13-octahydro-5,9-(azeno)cyclobuta[k]pyrazolo[4,3-b][1]oxa[4,6,10]triazacyclotridecine]",>10.09
3,"Cc1nn(C2CCC2)c2c1OC[C@H]1CC(F)(F)C[C@@H]1Nc1nc(ncc1C(F)(F)F)N2 [Ex-4.1, 3-Cyclobutyl-12,12-difluoro-1-methyl-8-(trifluoromethyl)-3,4,10a,11,12,13,13a,14-octahydro-10H-5,9-(azeno)cyclopenta[k]pyrazolo[4,3-b][1]oxa[4,6,10]triazacyclotridecine]",6.25
4,"Cc1nn(C2CCC2)c2c1OC[C@@H]1CC[C@H]1Nc1cc(ncc1F)N2 [Ex-13.6, (10aR,12aR)-3-cyclobutyl-8-fluoro-1-methyl-3,4,10,10a,11,12,12a,13-octahydro-5,9-(metheno)cyclobuta[k]pyrazolo[4,3-b][1]oxa[4,6,10]triazacyclotridecine]",<5.00
5,"Cc1nn(C2CCC2)c2c1OC1COC[C@H]1CNc1nc(ncc1C(F)(F)F)N2 (stereo partly drawn) [Ex-2.80, (11aR,14aR)-3-cyclobutyl-1-methyl-8-(trifluoromethyl)-3,4,10,11,11a,12,14,14a-octahydro-5,9-(azeno)furo[3,4-1]pyrazolo [4,3-b][1]oxa[4,6,10]triazacyclotridecine (11aS,14aS)-3-cyclobutyl-1-methyl-8-(trifluoromethyl)-3,4,10,11,11a,12,14,14a-octahydro-5,9-(azeno)furo[3,4-1]pyrazolo[4,3-b][1]oxa[4,6,10]triazacyclotridecine]",7.57
6,"Cc1nn(C2CC2)c2c1O[C@@H]1CC[C@@H]1CNc1nc(ncc1C(F)(F)F)N2 [Ex-2.86, (11aR,13aR)- or (11aS,13aS)-3-cyclopropyl-1-methyl-8-(trifluoromethyl)-3,4,10,11,11a,12,13,13a-octahydro-5,9-(azeno)cyclobuta[l]pyrazolo[4,3-b][1]oxa[4,6,10]triazacyclotridecine]",8.13
7,"Cc1nn(C2CCC2)c2c1OCC1COCCC1Nc1nc(ncc1C(F)(F)F)N2 [Ex-2.35, (4aR,16aR)- and (4aS,16aS)-12-cyclobutyl-14-methyl-7-(trifluoromethyl)-3,4,4a,5,11,12,16,16a-octahydro-1H-6,10-(azeno)pyrano[4,3-k]pyrazolo[4,3-b][1]oxa[4,6,10]triazacyclotridecine]",8.56
8,"COC1CCC1n1nc(C)c2c1Nc1ncc(C(F)(F)F)c(n1)NC1COCC1CO2 [Ex-2.39, (10aS,13aS)-3-((1R,2R)-(10aS,13aS)-3-((1S,2R)-(10aS,13aS)-3-((1R,2S)-(10aS,13aS)-3-((1R,2R)-(10aR,13aR)-3-((1S,2R)-(10aR,13aR)-3-((1R,2S)-2-methoxycyclobutyl)-1-methyl-8-(trifluoromethyl)-3,4,10a,11,13a,14-hexahydro-10H,13H-5,9-(azeno)furo[3,4-k]pyrazolo[4,3-b][1]oxa[4,6,10]triazacyclotridecine]",6.32
9,"Cc1nn(C2CCC2)c2c1OC[C@@H]1COC[C@H]1Nc1nc(ncc1C(F)(F)F)N2 [Ex-5.1, (10aS,13aS)-3-cyclobutyl-1-methyl-8-(trifluoromethyl)-3,4,10a,11,13a,14-hexahydro-10H,13H-5,9-(azeno)furo[3,4-k]pyrazolo[4,3-b][1]oxa[4,6,10]triazacyclotridecine]",>10.09
10,"CC(C)c1nn(C(C)(C)CO)c2c1N(C)c1ncc(C(F)(F)F)c(n1)N[C@H](C)CCO2 [Ex-9.1, (R)-2-(3-isopropyl-4,11-dimethyl-8-(trifluoromethyl)-10,11,12,13-tetrahydro-5,9-(azeno)pyrazolo[3,4-b][1]oxa[4,6,10]triazacyclotridecin-1 (4H)-yl)-2-methylpropan-1-ol]",6.11
11,"COC1CC(n2nc(C)c3c2Nc2ncc(Cl)c(n2)N[C@@H]2CC[C@H]2CO3)C1 (stereo partly drawn) [Ex-2.77, (10aR,12aR)-8-chloro-3-(3-methoxycyclobutyl)-1-methyl-3,4,10,10a,11,12,12a,13-octahydro-5,9-(azeno)cyclobuta[k]pyrazolo[4,3-b][1]oxa[4,6,10]triazacyclotridecine]",>10.09
12,"CC(C)c1nn(C(C)(C)C#N)c2c1Nc1ncc(Cl)c(n1)N[C@@H]1COC[C@H]1CO2 [Ex-1.16, 2-((10aS,13aS)-8-chloro-3-isopropyl-10a,11,13a,14-tetrahydro-10H,13H-5,9-(azeno)furo[3,4-k]pyrazolo[3,4-b][1]oxa[4,6,10]triazacyclotridecin-1(4H)-yl)-2-methylpropanenitrile]",9.76
13,"C=CCn1nc(C)c2c1Nc1ncc(C(F)(F)F)c(n1)N[C@@H]1COC[C@H]1CO2 [Ex-5.3, (10aS,13aS)-3-allyl-1-methyl-8-(trifluoromethyl)-3,4,10a,11,13a,14-hexahydro-10H,13H-5,9-(azeno)furo[3,4-k]pyrazolo[4,3-b][1]oxa[4,6,10]triazacyclotridecine]",7.30
14,"COC1CCC1n1nc(C)c2c1Nc1ncc(C(F)(F)F)c(n1)NC1COCC1CO2 [Ex-2.41, (10aS,13aS)-3-((1R,2R)-(10aS,13aS)-3-((1S,2R)-(10aS,13aS)-3-((1R,2S)-(10aS,13aS)-3-((1R,2R)-(10aR,13aR)-3-((1S,2R)-(10aR,13aR)-3-((1R,2S)-2-methoxycyclobutyl)-1-methyl-8-(trifluoromethyl)-3,4,10a,11,13a,14-hexahydro-10H,13H-5,9-(azeno)furo[3,4-k]pyrazolo[4,3-b][1]oxa[4,6,10]triazacyclotridecine]",6.51
15,"O[C@@H]1CC[C@H]1n1nc(C2CC2)c2c1OC[C@@H]1COC[C@H]1Nc1nc(ncc1C(F)(F)F)N2 (single isomer, unassigned) [Ex-6.9, (1R,2R)- or (1S,2S)-2-((10aS,13aS)-3-cyclopropyl-8-(trifluoromethyl)-10a,11,13a, 14-tetrahydro-10H,13H-5,9-(azeno)furo[3,4-k]pyrazolo[3,4-b][1]oxa[4,6,10]triazacyclotridecin-1(4H)-yl)cyclobutan-1-ol]",>10.09
16,"Cc1nn(C(C)C)c2c1OCCC(C)Nc1nc(ncc1C(F)(F)F)N2 (single isomer, unassigned) [Ex-2.8, (R)- or (S)-1-isopropyl-3,7-dimethyl-10-(trifluoromethyl)-1,5,6,7,8,14-hexahydro-9,13-(azeno)pyrazolo[4,3-b][1]oxa[4,6,10]triazacyclotridecine]",9.48
17,"CC(C)(O)Cn1nc(C2CC2)c2c1OC[C@@H]1CC[C@H]1Nc1nc(ncc1C(F)(F)F)N2 [Ex-1.21, 1-((10aR,12aR)-3-cyclopropyl-8-(trifluoromethyl)-10,10a,11,12,12a,13-hexahydro-5,9-(azeno)cyclobuta[k]pyrazolo[3,4-b][1]oxa[4,6,10]triazacyclotridecin-1(4H)-yl)-2-methylpropan-2-ol]",>10.09
18,"O[C@@H]1COCC1n1nc(C2CC2)c2c1OC[C@H]1CC[C@@H]1Nc1nc(ncc1C(F)(F)F)N2 (single isomer, unassigned) [Ex-6.1, (3R,4S)-4-((10aR,12aR)- or (3R,4S)-4-((10aS,12aS)- or (3S,4R)-4-((10aR,12aR)- or (3S,4R)-4-((10aR,12aR)-3-cyclopropyl-8-(trifluoromethyl)-10,10a,11,12,12a,13-hexahydro-5,9-(azeno)cyclobuta[k]pyrazolo[3,4-b][1]oxa[4,6,10]triazacyclotridecin-1 (4H)-yl)tetrahydrofuran-3-ol]",7.94
19,"Cc1nn(C)c2c1OCC1(CC1)C(C)Nc1nc(ncc1C(F)(F)F)N2 (single isomer, unassigned) [Ex-2.14, (R)- or (S)-1′,3′,7′-trimethyl-10′-(trifluoromethyl)-1′,7′,8',14′-tetrahydro-5′H-spiro[cyclopropane-1,6′-[9,13](azeno)pyrazolo[4,3-b][1]oxa[4,6,10]triazacyclotridecine]]",6.73
20,"Cc1nn(C2CC2(F)F)c2c1OCC1COCC1Nc1nc(ncc1C(F)(F)F)N2 [Ex-2.59, (10aS,13aS)-3-((R)-2,2-difluorocyclopropyl)-1-methyl-8-(trifluoromethyl)-3,4,10a,11,13a,14-hexahydro-10H,13H-5,9-(azeno)furo[3,4-k]pyrazolo[4,3-b][1]oxa[4,6,10]triazacyclotridecine (10aS,13aS)-3-((S)-2,2-difluorocyclopropyl)-1-methyl-8-(trifluoromethyl)-3,4,10a,11,13a, 14-hexahydro-10H,13H-5,9-(azeno)furo[3,4-k]pyrazolo[4,3-b|[1]oxa|4,6,10]triazacyclotridecine]",9.71
21,"Cc1nn(C2CCC2)c2c1OC[C@@H]1CC[C@H]1Nc1nc(ncc1C(F)(F)F)N2 [Ex-2.4, (10aR,12aR)- or (10aS,12aS)-3-Cyclobutyl-1-methyl-8-(trifluoromethyl)-3,4,10,10a,11,12,12a,13-octahydro-5,9-(azeno)cyclobuta[k]pyrazolo[4,3-b][1]oxa[4,6,10]triazacyclotridecine]",6.66
22,"COC1CCC1n1nc(C)c2c1Nc1ncc(C(F)(F)F)c(n1)NC1COCC1CO2 [Ex-2.36, (10aS,13aS)-3-((1R,2R)-(10aS,13aS)-3-((1S,2R)-(10aS,13aS)-3-((1R,2S)-(10aS,13aS)-3-((1R,2R)-(10aR,13aR)-3-((1S,2R)-(10aR,13aR)-3-((1R,2S)-2-methoxycyclobutyl)-1-methyl-8-(trifluoromethyl)-3,4,10a,11,13a,14-hexahydro-10H,13H-5,9-(azeno)furo[3,4-k]pyrazolo[4,3-b][1]oxa[4,6,10]triazacyclotridecine]",6.31
